Laboratory results taken from PMC9144402, “An Octopus-Derived Peptide with Antidiuretic Activity in Rats” (Marine Drugs, 2022).

Experiments:
human V1bR [1] = target: T1, human V1bR (Homo sapiens, UniProt P47901); test: V1bR functional assay, agonist effect (intracellular Ca^2+ increase, fluorimetry, RBL cells); type: cell-based; conditions: up to 50 μM; RBL; RT; fluorimetry; % of control response (0.1 µM AVP); triplicate
T1 construct: host or cells: RBL
T1 sequence (P47901 1-424): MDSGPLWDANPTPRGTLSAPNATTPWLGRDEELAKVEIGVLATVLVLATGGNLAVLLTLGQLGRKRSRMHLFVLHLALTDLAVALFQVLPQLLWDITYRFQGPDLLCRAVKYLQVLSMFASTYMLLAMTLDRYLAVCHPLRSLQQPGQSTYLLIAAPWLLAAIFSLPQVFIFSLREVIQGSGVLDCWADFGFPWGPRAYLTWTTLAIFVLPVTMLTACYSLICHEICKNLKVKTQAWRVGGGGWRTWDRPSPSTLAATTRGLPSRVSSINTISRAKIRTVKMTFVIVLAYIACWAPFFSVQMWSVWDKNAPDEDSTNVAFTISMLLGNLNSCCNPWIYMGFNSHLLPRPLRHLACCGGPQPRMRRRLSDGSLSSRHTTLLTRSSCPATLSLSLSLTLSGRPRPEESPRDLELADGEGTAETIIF
Procedure: (§1) Detailed information about the cells tested and other experimental conditions are described in Table 2. Briefly, cells were transfected with a recombinant expression vector capable of expressing each type of human OXT/AVP receptor. To evaluate the agonist effects on OXTR, V1aR, and V1bR, the intracellular Ca^2+ increase after treatment with OTP or CPT was measured by fluorimetry. […] For V2R receptors, cells were treated with peptides with or without the stimulant for 30 min. After that, cyclic AMP (cAMP) concentrations were measured by homogeneous time-resolved fluorescence (HTRF). The results were represented as the percent submaximal response achieved by the stimulant. All experiments were performed in triplicate. Data are presented as the mean ± standard error of the mean. The 50% effective concentration (EC50) and 50% inhibitory concentration (IC50) values were determined using a 4-parameter logistic fitting of a dose–response curve using SigmaPlot 10.0 (Systat Software, Palo Alto, CA, USA).

human V2R [2] = target: T2, human V2R (Homo sapiens, UniProt P30518); test: V2R functional assay, antagonist effect (0.03 nM AVP-induced cAMP, HTRF, CHO cells); type: cell-based; conditions: all concentrations tested, stimulant 0.03 nM AVP, 30 min RT, triplicate
T2 construct: host or cells: CHO
Procedure: as §1

human OXTR [3] = target: T3, human OXTR (Homo sapiens, UniProt P30559); test: OXTR functional assay, agonist effect (intracellular Ca^2+ increase, fluorimetry, transfected ECV304 cells); type: cell-based; conditions: up to 50 μM, RT, % of control response (1 µM OXT), triplicate
T3 construct: host or cells: ECV304
T3 sequence (P30559 1-389): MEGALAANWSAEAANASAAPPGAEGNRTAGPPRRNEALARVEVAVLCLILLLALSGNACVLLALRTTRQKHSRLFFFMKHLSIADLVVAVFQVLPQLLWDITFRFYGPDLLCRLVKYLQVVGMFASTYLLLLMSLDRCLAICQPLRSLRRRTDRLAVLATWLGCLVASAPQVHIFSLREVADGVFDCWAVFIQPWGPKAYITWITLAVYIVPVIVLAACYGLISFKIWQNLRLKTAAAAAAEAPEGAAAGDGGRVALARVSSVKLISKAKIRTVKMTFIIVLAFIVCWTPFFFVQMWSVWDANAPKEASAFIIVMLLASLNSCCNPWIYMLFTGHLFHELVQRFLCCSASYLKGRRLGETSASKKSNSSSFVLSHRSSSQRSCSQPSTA
Procedure: as §1

human V2R [4] = target: T2, human V2R; test: V2R functional assay, agonist effect (cAMP accumulation, HTRF, CHO cells); type: cell-based; conditions: 50 μM; CHO; 30 min RT; HTRF; % of control response (1 nM AVP); triplicate
Procedure: as §1

human V1aR [5] = target: T4, human V1aR (Homo sapiens, UniProt P37288); test: V1aR functional assay, antagonist effect (10 nM AVP-induced intracellular Ca^2+, fluorimetry, CHO cells); type: cell-based; conditions: all concentrations tested; CHO; stimulant 10 nM AVP; RT; fluorimetry; triplicate
T4 construct: host or cells: CHO
Procedure: as §1

human OXTR [6] = target: T3, human OXTR; test: OXTR functional assay, antagonist effect (30 nM OXT-induced intracellular Ca^2+, fluorimetry, ECV304 cells); type: cell-based; conditions: 50 μM; ECV304; stimulant 30 nM OXT; RT; fluorimetry; triplicate
Procedure: as §1

Octopus vulgaris = conditions: same species (Octopus vulgaris); ref [20]; cited from earlier work
Text: (§2) These genes produce active nonapeptides, which are named octopressin (OTP) and cephalotocin (CPT). […] OTP was also reported to evoke hyperactivity in chromatophore cells, ra ...

[7] = system: common cuttlefish (Sepia officinalis); conditions: ref [22]; cited from earlier work
Text: as §2

[8] = system: oviduct, aorta, and rectum; conditions: in vitro preparations of oviduct, ref [18]; cited from earlier work
Text: as §2

O. ocellatus = conditions: ref [21]; cited from earlier work
Text: as §2

human V1aR [9] = target: T4, human V1aR; test: V1aR functional assay, agonist effect (intracellular Ca^2+ increase, fluorimetry, CHO cells); type: cell-based; conditions: up to 50 μM, RT, % of control response (1 µM AVP), triplicate
Procedure: as §1

human V1bR [10] = target: T1, human V1bR; test: V1bR functional assay, antagonist effect (5 nM AVP-induced intracellular Ca^2+, fluorimetry, RBL cells); type: cell-based; conditions: all concentrations tested, stimulant 5 nM AVP, RT, triplicate
Procedure: as §1

T4 sequence (P37288 whole entry): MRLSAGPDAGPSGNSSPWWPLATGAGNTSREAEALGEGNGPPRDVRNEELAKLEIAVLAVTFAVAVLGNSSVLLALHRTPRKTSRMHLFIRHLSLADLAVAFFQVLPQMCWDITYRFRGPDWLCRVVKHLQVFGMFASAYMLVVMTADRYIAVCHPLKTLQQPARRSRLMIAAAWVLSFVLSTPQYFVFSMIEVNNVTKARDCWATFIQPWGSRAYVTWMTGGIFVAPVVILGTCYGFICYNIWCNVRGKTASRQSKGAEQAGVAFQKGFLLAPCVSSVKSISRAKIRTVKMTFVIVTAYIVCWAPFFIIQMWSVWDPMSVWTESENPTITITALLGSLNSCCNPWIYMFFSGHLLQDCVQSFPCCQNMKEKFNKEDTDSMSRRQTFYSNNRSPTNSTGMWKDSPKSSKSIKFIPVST

CYWTSCPIG-NH2 (disulfide bond) (disulfide) [OTP, octopressin, natural OXT/AVP analog from Octopus vulgaris, synthesized by solid-phase peptide synthesis]
V1bR-mediated intracellular Ca^2+ increase (agonist effect) (human V1bR [1]): did not seem to induce
antagonist effect against V2R activation (human V2R [2]): could not inhibit
OXTR-mediated intracellular Ca^2+ increase (agonist effect) (human OXTR [3]): did not seem to induce
V2R-mediated cAMP accumulation (agonist effect) (human V2R [4]): < 30%
antagonist effect against V1aR activation (human V1aR [5]): could not inhibit
inhibition rate of OXTR activation (human OXTR [6]): approximately 30%
behavioral effect (Octopus vulgaris): hyperactivity in chromatophore cells, rapid respiration, and jetting water from the siphon
effect on long-term memory [7]: affect long-term memory
effect on peripheral tissues [8]: induced contractions
hemolymph osmolality (O. ocellatus): decreases hemolymph osmolality
V1aR-mediated intracellular Ca^2+ increase (agonist effect) (human V1aR [9]): did not seem to induce
antagonist effect against V1bR activation (human V1bR [10]): could not inhibit
